From patent publication US9550772B2, “Azaindole derivatives as multi kinase inhibitors” (ORIBASE PHARMA, priority 2012, dated 2017)
Like-named read-outs stand apart in the source and are kept apart here.

Tests used:
SRC = target: T1, SRC (Homo sapiens, UniProt P12931); test: In vitro kinase assay (Z'-LYTE, Invitrogen); format: biochemical; details: compound at 100 nM, ATP Km apparent, read-out: % of inhibition of the kinase compared to the control
T1 construct: purchased Invitrogen
Experimental: (§1) The inhibitory activity of the compounds on 7 kinases (BRAF, EGFR (ErbB1), EGFR (ErbB1) T790M L858R, FGFR2, KDR (VEGFR2), PDGFRA (PDGFR alpha), SRC) was evaluated by Invitrogen using the Z′-LYTE® technology. Briefly, the Z′-LYTE® biochemical assay employs a fluorescence-based, coupled-enzyme format and is based on the differential sensitivity of phosphorylated and non-phosphorylated peptides to proteolytic cleavage. The peptide substrate is labeled with two fluorophores—one at each end—that make up a FRET pair. A ratiometric method, which calculates the ratio (the Emission Ratio) of donor emission to acceptor emission after excitation of the donor fluorophore at 400 nm, is used to quantitate reaction progress.
(§2) The compounds are screened in 1% DMSO (final) in the well. For 10 point titrations, 3-fold serial dilutions are conducted from the starting concentration. All Peptide/Kinase Mixtures are diluted to a 2× working concentration in the appropriate Kinase Buffer. All ATP Solutions are diluted to a 4× working concentration in Kinase Buffer (50 mM HEPES pH 7.5, 0.01% BRIJ-35, 10 mM MgCl2, 1 mM EGTA). ATP Km apparent is previously determined using a Z′-LYTE® assay.
(§3) Each compound was incubated at a concentration of 100 nM and the tables 21 to 27 summarize the results obtained showing the inhibitory power of a compound.

KDR (VEGFR2) = target: T2, KDR (VEGFR2) (Homo sapiens, UniProt P35968); test: In vitro kinase assay (Z'-LYTE, Invitrogen); format: biochemical; details: compound at 100 nM, ATP Km apparent, read-out: % of inhibition of the kinase compared to the control
T2 construct: purchased Invitrogen
T2 sequence (P35968 20-1356): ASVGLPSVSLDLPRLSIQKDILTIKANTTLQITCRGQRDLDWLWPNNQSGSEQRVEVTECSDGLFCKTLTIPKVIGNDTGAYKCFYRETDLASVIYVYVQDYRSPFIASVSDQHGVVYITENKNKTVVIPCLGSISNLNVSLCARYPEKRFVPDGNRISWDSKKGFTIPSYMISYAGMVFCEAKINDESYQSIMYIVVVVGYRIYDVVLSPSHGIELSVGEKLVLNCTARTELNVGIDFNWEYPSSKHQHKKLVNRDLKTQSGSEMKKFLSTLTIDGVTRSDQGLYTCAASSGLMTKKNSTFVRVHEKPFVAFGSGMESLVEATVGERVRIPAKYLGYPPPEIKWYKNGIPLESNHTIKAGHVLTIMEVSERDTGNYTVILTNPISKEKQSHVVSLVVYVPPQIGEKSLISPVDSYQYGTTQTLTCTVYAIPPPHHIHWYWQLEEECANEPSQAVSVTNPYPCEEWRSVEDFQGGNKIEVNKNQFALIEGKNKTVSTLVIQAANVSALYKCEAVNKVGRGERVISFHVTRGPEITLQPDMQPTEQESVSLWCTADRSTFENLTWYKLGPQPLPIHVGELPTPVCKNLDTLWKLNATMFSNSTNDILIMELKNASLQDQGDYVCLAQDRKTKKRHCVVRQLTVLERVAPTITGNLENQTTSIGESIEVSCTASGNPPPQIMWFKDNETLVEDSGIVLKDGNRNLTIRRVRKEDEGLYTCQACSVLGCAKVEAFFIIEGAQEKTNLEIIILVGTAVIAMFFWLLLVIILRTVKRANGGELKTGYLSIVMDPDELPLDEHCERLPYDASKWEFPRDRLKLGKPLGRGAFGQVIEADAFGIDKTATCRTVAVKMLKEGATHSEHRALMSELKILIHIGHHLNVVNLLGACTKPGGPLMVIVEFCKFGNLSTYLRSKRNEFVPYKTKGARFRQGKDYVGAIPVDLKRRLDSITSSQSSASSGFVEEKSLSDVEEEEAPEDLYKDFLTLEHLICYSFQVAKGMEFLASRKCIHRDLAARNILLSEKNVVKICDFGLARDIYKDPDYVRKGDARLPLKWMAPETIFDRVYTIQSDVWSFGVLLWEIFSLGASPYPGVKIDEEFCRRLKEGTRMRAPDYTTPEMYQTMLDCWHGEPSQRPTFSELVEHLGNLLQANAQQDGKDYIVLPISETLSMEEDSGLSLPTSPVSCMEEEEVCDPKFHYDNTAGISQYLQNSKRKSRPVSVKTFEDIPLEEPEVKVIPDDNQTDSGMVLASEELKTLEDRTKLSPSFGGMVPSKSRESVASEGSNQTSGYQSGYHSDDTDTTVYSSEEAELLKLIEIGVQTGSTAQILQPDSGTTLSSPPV
Experimental: as §1, §2, §3

PDGFRA (PDGFR alpha) = target: T3, PDGFRA (PDGFR alpha) (Homo sapiens, UniProt P16234); test: In vitro kinase assay (Z'-LYTE, Invitrogen); format: biochemical; details: compound at 100 nM, ATP Km apparent, read-out: % of inhibition of the kinase compared to the control
T3 construct: purchased Invitrogen
Experimental: as §1, §2, §3

BRAF = target: T4, BRAF (Homo sapiens, UniProt P15056); test: In vitro kinase assay (Z'-LYTE, Invitrogen); format: biochemical; details: compound at 100 nM, ATP Km apparent, read-out: % of inhibition of the kinase compared to the control
T4 construct: purchased Invitrogen
T4 sequence (P15056 whole entry): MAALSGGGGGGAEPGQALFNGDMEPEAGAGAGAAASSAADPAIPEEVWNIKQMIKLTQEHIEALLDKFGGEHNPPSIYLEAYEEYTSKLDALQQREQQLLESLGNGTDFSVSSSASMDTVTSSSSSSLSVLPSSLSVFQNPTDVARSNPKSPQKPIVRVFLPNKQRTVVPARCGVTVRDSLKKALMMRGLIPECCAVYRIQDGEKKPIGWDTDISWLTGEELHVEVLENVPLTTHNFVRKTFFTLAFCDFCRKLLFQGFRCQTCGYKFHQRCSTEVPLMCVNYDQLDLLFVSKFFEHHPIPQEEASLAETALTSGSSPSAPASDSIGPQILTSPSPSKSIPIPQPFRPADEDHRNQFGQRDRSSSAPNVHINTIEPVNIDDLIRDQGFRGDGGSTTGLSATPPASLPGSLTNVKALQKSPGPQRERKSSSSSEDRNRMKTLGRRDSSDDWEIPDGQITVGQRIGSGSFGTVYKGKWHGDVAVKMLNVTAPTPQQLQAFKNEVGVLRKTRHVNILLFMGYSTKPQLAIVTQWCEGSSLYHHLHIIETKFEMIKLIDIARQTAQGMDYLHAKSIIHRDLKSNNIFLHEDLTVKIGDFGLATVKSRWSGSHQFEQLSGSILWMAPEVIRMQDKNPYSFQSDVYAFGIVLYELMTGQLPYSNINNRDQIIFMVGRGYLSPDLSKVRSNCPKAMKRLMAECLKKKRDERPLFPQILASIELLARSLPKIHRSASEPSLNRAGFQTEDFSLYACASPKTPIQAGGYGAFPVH
Experimental: as §1, §2, §3

EGFR (ErbB1) = target: T5, EGFR (ErbB1) (Homo sapiens, UniProt P00533); test: In vitro kinase assay (Z'-LYTE, Invitrogen); format: biochemical; details: compound at 100 nM, ATP Km apparent, read-out: % of inhibition of the kinase compared to the control
T5 construct: purchased Invitrogen
T5 sequence (P00533 25-1210): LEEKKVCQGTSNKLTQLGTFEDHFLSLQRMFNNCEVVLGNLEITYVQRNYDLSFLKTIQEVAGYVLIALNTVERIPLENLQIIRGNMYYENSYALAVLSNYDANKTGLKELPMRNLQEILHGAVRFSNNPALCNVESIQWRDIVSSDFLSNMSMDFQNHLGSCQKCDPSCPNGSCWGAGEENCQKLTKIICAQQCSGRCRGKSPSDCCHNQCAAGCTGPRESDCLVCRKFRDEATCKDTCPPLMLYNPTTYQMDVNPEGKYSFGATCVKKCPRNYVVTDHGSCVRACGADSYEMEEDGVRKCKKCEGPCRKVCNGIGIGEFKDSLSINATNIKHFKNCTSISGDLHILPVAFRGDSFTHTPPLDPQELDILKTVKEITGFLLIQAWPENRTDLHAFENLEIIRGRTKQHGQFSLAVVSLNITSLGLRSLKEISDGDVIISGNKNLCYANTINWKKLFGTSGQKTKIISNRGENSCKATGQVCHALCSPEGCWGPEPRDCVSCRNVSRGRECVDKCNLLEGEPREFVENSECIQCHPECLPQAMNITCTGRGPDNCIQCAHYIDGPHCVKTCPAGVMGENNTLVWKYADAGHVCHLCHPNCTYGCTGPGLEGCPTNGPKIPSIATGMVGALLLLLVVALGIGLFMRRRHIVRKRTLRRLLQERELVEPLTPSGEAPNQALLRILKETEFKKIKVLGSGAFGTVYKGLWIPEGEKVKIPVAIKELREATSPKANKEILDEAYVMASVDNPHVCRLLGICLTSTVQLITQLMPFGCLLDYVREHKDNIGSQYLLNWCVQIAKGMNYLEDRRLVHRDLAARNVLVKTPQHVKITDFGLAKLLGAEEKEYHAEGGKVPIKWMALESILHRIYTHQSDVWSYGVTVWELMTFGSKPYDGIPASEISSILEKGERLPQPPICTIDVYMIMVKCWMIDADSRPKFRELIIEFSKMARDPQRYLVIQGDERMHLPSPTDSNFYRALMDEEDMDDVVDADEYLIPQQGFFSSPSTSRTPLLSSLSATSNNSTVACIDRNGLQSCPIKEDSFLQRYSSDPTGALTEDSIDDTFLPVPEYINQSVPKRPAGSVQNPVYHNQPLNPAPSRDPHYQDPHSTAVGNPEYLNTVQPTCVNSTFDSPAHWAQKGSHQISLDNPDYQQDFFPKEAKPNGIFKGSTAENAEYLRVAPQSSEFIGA
Experimental: as §1, §2, §3

FGFR2 = target: T6, FGFR2 (Homo sapiens, UniProt P21802); test: In vitro kinase assay (Z'-LYTE, Invitrogen); format: biochemical; details: compound at 100 nM, ATP Km apparent, read-out: % of inhibition of the kinase compared to the control
T6 construct: purchased Invitrogen
T6 sequence (P21802 22-821): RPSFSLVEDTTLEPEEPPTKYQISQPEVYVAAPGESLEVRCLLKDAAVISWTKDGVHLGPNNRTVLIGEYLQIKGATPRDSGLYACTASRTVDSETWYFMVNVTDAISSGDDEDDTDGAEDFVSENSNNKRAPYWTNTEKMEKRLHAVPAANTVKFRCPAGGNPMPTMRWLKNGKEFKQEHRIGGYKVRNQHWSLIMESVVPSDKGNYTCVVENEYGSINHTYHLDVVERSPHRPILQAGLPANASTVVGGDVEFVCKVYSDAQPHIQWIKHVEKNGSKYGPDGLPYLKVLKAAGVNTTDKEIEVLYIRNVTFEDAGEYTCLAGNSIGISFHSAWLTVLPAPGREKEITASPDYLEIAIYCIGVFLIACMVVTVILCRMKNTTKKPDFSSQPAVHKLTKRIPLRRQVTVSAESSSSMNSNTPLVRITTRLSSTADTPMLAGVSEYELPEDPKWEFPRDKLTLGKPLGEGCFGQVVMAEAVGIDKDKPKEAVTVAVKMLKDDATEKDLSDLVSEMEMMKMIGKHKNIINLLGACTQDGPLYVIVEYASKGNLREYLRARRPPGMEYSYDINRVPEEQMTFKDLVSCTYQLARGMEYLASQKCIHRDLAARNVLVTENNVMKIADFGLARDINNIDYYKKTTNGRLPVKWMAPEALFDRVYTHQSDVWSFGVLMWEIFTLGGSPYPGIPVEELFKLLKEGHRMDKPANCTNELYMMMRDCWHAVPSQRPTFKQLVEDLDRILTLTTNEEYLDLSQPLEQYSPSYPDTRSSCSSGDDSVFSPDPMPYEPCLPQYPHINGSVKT
Experimental: as §1, §2, §3

HUVEC cells = test: In vitro cell proliferation assay (MTT); format: cell-based; details: Homo sapiens, 72 hr, read-out: EC50, anti-proliferative activity
Experimental: (§4) Cancer cell lines (5×10^3 cells per well) or HUVEC (1×10^4 cells per well) or HRMEC (1×10^4 cells per well) were distributed in 96-well plates and incubating in duplicate with escalating concentrations (10 nM to 3 μM) of compounds for 72 hr. Cell proliferation was measured using MTT (3[4,5-dimethylthiazol-2-yl]-2,5-diphenyltetrazolium bromide). The EC50 values were calculated from sigmoidal dose-response curves utilizing Prism 5.0 from Graph-Pad Software (GraphPad Software, La Jolla, Calif., USA), with values normalized to those of DMSO-treated control wells (0%) and 1% SDS control wells (100%).

HeLa cell line = test: In vitro cell proliferation assay (MTT); format: cell-based; details: Homo sapiens, 72 hr, read-out: EC50, anti-proliferative activity
Experimental: as §4

MDA-MB-231 cell line = test: In vitro cell proliferation assay (MTT); format: cell-based; details: Homo sapiens, MDA-MB-231, 72 hr, read-out: EC50, anti-proliferative activity
Experimental: as §4

HepG2 cell line = test: In vitro cell proliferation assay (MTT); format: cell-based; details: Homo sapiens, HepG2, 72 hr, read-out: EC50, anti-proliferative activity
Experimental: as §4

A549 cell line = test: In vitro cell proliferation assay (MTT); format: cell-based; details: Homo sapiens, A549, 72 h, read-out: EC50, anti-proliferative activity
Experimental: as §4

T1 sequence (P12931 whole entry): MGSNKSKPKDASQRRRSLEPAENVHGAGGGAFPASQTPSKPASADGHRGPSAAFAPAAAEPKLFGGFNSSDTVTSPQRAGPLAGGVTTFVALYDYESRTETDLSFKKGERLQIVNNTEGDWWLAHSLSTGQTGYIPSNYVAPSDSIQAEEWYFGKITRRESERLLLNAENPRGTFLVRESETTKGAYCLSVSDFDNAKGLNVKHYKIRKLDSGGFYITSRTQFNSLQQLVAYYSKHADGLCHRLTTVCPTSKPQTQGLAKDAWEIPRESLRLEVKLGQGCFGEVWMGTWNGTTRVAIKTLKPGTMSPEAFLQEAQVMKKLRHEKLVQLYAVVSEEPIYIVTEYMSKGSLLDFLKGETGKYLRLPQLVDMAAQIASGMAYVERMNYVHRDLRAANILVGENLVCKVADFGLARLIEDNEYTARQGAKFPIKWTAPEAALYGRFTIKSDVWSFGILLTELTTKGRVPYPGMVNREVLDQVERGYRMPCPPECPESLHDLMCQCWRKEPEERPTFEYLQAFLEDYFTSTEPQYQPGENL

Q: How did the inhibition at 0.1 µM (SRC) turn out when COC(=O)c1cc2cc(CCc3cc(NC(=O)C4CCC(C(F)(F)F)CC4)ccc3C)cnc2[nH]1 (stereo not shown) [OR1057, 5-(2-{2-Methyl-5-[(4-trifluoromethyl-cyclohexanecarbonyl)-amino]-phenyl)-ethyl)-1H-pyrrolo[2,3-b]pyridine-2-carboxylic acid methyl ester] was run?
A: ≥ 50%

Q: And the inhibition at 0.1 µM (KDR (VEGFR2))?
A: < 50%

Q: What about the inhibition at 0.1 µM (PDGFRA (PDGFR alpha)) of the same compound?
A: ≥ 50%

Q: What about the inhibition at 0.1 µM (BRAF) of the same compound?
A: < 50%

Q: And the inhibition at 0.1 µM (EGFR (ErbB1))?
A: ≥ 50%

Q: And the inhibition at 0.1 µM (FGFR2)?
A: < 50%

Q: What about the EC50 (HUVEC cells; EC50 ≧ 1 μM) of the same compound?
A: ≥ 1 µM

Q: What about the EC50 (HeLa cell line; EC50 ≧ 1 μM) of the same compound?
A: ≥ 1 µM

Q: And the EC50 (MDA-MB-231 cell line; EC50 ≧ 1 μM)?
A: ≥ 1 µM

Q: And the EC50 (HepG2 cell line; EC50 ≧ 1 μM)?
A: ≥ 1 µM

Q: What about the EC50 (A549 cell line; EC50 ≧ 1 μM) of the same compound?
A: ≥ 1 µM

Q: COC(=O)c1cc2cc(CCc3cccc(NC(=O)c4ccc(CN5CCN(C)CC5)c(C(F)(F)F)c4)c3)cnc2[nH]1 [OR0921, 5-(2-{3-[4-(4-Methyl-piperazin-1-ylmethyl)-3-trifluoromethyl-benzoylamino]-phenyl}-ethyl)-1H-pyrrolo[2,3-b]pyridine-2-carboxylic acid methyl ester] was tested. Which inhibition at 0.1 µM (KDR (VEGFR2)) did it give?
A: ≥ 50%

Q: What about the inhibition at 0.1 µM (BRAF) of the same compound?
A: < 50%

Q: And the inhibition at 0.1 µM (EGFR (ErbB1))?
A: ≥ 50%

Q: And the inhibition at 0.1 µM (FGFR2)?
A: ≥ 50%

Q: What about the EC50 (HUVEC cells; EC50 ≦ 100 nM) of the same compound?
A: ≤ 0.1 µM

Q: What about the EC50 (HeLa cell line; EC50 ≦ 100 nM) of the same compound?
A: ≤ 0.1 µM

Q: What about the EC50 (MDA-MB-231 cell line; EC50 ≦ 100 nM) of the same compound?
A: ≤ 0.1 µM

Q: What about the EC50 (HepG2 cell line; 100 nM < EC50 < 1 μM) of the same compound?
A: 0.1 to 1 µM

Q: What about the EC50 (A549 cell line; 100 nM < EC50 < 1 μM) of the same compound?
A: 0.1 to 1 µM

Q: Which inhibition at 0.1 µM (KDR (VEGFR2)) does the source give for COC(=O)c1cc2cc(CCc3cc(NC(=O)c4ccc(CN5CCC(N(C)C)C5)c(C(F)(F)F)c4)ccc3Cl)cnc2[nH]1 (stereo not shown) [OR1007, 5-(2-{2-Chloro-5-[4-(3-dimethylamino-pyrrolidin-1-ylmethyl)-3-trifluoromethyl-benzoylamino]-phenyl}-ethyl)-1H-pyrrolo[2,3-b]pyridine-2-carboxylic acid methyl ester] here?
A: ≥ 50%

Q: And the inhibition at 0.1 µM (BRAF)?
A: < 50%

Q: And the inhibition at 0.1 µM (EGFR (ErbB1))?
A: ≥ 50%

Q: What about the inhibition at 0.1 µM (FGFR2) of the same compound?
A: ≥ 50%

Q: And the EC50 (HUVEC cells; 100 nM < EC50 < 1 μM)?
A: 0.1 to 1 µM

Q: And the EC50 (HeLa cell line; EC50 ≧ 1 μM)?
A: ≥ 1 µM

Q: And the EC50 (MDA-MB-231 cell line; EC50 ≧ 1 μM)?
A: ≥ 1 µM

Q: And the EC50 (HepG2 cell line; EC50 ≧ 1 μM)?
A: ≥ 1 µM

Q: And the EC50 (A549 cell line; EC50 ≧ 1 μM)?
A: ≥ 1 µM

Q: For COC(=O)c1cc2cc(CCc3ccc(C)c(NC(=O)c4ccc(CN5CCC(N(C)C)C5)c(C(F)(F)F)c4)c3)cnc2[nH]1 (stereo not shown) [OR1044, 5-(2-{5-[4-(3-Dimethylamino-pyrrolidin-1-ylmethyl)-3-trifluoromethyl-benzoylamino]-4-methyl-phenyl}-ethyl)-1H-pyrrolo[2,3-b]pyridine-2-carboxylic acid methyl ester], which inhibition at 0.1 µM (KDR (VEGFR2)) is on record?
A: ≥ 50%

Q: What about the inhibition at 0.1 µM (BRAF) of the same compound?
A: < 50%

Q: And the inhibition at 0.1 µM (EGFR (ErbB1))?
A: ≥ 50%

Q: And the inhibition at 0.1 µM (FGFR2)?
A: ≥ 50%

Q: What about the EC50 (HUVEC cells; 100 nM < EC50 < 1 μM) of the same compound?
A: 0.1 to 1 µM

Q: And the EC50 (HeLa cell line; 100 nM < EC50 < 1 μM)?
A: 0.1 to 1 µM

Q: And the EC50 (MDA-MB-231 cell line; EC50 ≧ 1 μM)?
A: ≥ 1 µM

Q: What about the EC50 (HepG2 cell line; EC50 ≧ 1 μM) of the same compound?
A: ≥ 1 µM

Q: And the EC50 (A549 cell line; EC50 ≧ 1 μM)?
A: ≥ 1 µM

Q: For COC(=O)c1cc2cc(CSc3cccc(NC(=O)c4cccc(C(F)(F)F)c4)c3)cnc2[nH]1 [OR1066, 5-[3-(3-Trifluoromethyl-benzoylamino)-phenylsulfanylmethyl]-1H-pyrrolo[2,3-b]pyridine-2-carboxylic acid methyl ester], which inhibition at 0.1 µM (SRC) is on record?
A: < 50%

Q: What about the inhibition at 0.1 µM (KDR (VEGFR2)) of the same compound?
A: ≥ 50%

Q: What about the inhibition at 0.1 µM (PDGFRA (PDGFR alpha)) of the same compound?
A: ≥ 50%

Q: What about the inhibition at 0.1 µM (BRAF) of the same compound?
A: < 50%

Q: What about the inhibition at 0.1 µM (EGFR (ErbB1)) of the same compound?
A: < 50%

Q: And the inhibition at 0.1 µM (FGFR2)?
A: < 50%

Q: And the EC50 (HUVEC cells; EC50 ≧ 1 μM)?
A: ≥ 1 µM

Q: What about the EC50 (HeLa cell line; EC50 ≧ 1 μM) of the same compound?
A: ≥ 1 µM

Q: And the EC50 (MDA-MB-231 cell line; EC50 ≧ 1 μM)?
A: ≥ 1 µM

Q: What about the EC50 (HepG2 cell line; EC50 ≧ 1 μM) of the same compound?
A: ≥ 1 µM

Q: And the EC50 (A549 cell line; EC50 ≧ 1 μM)?
A: ≥ 1 µM
